pIC50, pKd: −log10 of the molar value.
Assays:
[1] = system: GM-CSFR/JAK2/STAT5 pathway; assay: CSTF-1 cell-based reporter assay (beta-lactamase reporter, GM-CSF stimulated); conditions: Homo sapiens; csTF-1 cells, GM-CSF 2 ng/mL, 4 hours; read-out: Cell Assay: CS TF-1 reporter assay IC50
Method: CSTF-1 cells are derived from the human erythroleukemia cell line that is growth dependent on GM-CSF and has an intact GM-CSFR/JAK2/STAT5 pathway. The cell line contains stably integrated beta-lactamase reporter gene under the control of the […] (irf 1) response element recognized by the activated transcription factor STAT5. csTF-1 cells (Invitrogen K1219) were washed with assay media (97% OPTIMEM/0.5% dialyzed FBS/0.1 mM NEAA/1 mM Na pyr/P/S) and seeded in the same media at 5×10^5 cell/mL in T150 flask. After 16 hour incubation, cells were seeded at 2×10^5 cell/well in 50 jtl volume, into Costar, clear bottom, 96-well assay plates. Serial dilutions of compounds were added to the plates with final DMSO concentration at 0.5% and GM-CSF at 2 ng/mL and the plates were then incubated at 30° C. and 5% CO2 for 4 hours. The plates were brought to room temperature before adding Substrate Mixture according to manufacturer's protocol (Invitrogen, Catalog #K1085). The assay plates containing the substrate mixture were incubated in the dark at room temperature for 2 hours. Blue and green fluorescence was measured with excitation at 409 nm and emission at 460 nm (for blue) and excitation at 409 nm and emission at 530 nm (for green) using Spectra Max Gemini EM.

[2] = target: T1, JAK2 (Homo sapiens, UniProt O60674); assay: Competition binding assay, JAK2
T1 construct: made in house; host or cells: T7 phage display or HEK-293 cells (alternatives)
Method: (§1) Competition binding assays used herein were developed, validated and performed as described in Fabian et al., Nature Biotechnology 2005, 23, 329-336. Kinases were produced as fusions to T7 phage (See, Fabian et al. or WO04/015142) or alternatively, the kinases were expressed in HEK-293 cells and subsequently tagged with DNA for PCR detection (See, WO08/005,310). For the binding assays, streptavidin-coated magnetic beads were treated with biotinylated affinity ligands for […] at rt to generate affinity resins. The liganded beads were blocked with excess biotin and washed with blocking buffer (SeaBlock (Pierce), 1% BSA, 0.05% Tween 20, 1 mM DTT) to remove unbound ligand and to reduce non-specific binding. Binding reactions were assembled by combining kinase, liganded affinity beads, and test compounds in 1× binding buffer (20% SeaBlock, 0.17×PBS, 0.05% Tween 20, 6 mM DTT). Test compounds were prepared as 100× stocks in DMSO and rapidly diluted into the aqueous environment. DMSO was added to control assays lacking a test compound. Primary screen interactions were performed in polypropylene 384-well plates in a final volume of 34 μL, while Kd determinations were performed in polystyrene 96-well plates in a final volume of 135 μL. The assay plates were incubated at room temperature with shaking for 1 hour, long enough for binding reactions to reach equilibrium, and the affinity beads were washed extensively with wash buffer (1×PBS, 0.05% Tween 20) to remove unbound protein. The beads were then resuspended in elution buffer (1×PBS, 0.05% Tween 20, 2 μM non-biotinylated affinity ligand) and incubated at room temperature with shaking for 30 min. The kinase concentration in the eluates was measured by quantitative PCR. Each kinase was tested individually against each compound. Kds were determined using eleven serial threefold dilutions. A selectivity score, which is a quantitative measure of selectivity of a compound against a panel of enzymes, may be calculated for a compound by dividing the number of enzymes for which a compound meets a set criteria, (for example, a binding constant of 100 nM or less), by the total number of enzymes tested.

[3] = target: T2, JAK3 (Homo sapiens, UniProt P52333); assay: Competition binding assay, JAK3
T2 construct: made in house; host or cells: T7 phage display or HEK-293 cells (alternatives)
T2 sequence (P52333 1-1124): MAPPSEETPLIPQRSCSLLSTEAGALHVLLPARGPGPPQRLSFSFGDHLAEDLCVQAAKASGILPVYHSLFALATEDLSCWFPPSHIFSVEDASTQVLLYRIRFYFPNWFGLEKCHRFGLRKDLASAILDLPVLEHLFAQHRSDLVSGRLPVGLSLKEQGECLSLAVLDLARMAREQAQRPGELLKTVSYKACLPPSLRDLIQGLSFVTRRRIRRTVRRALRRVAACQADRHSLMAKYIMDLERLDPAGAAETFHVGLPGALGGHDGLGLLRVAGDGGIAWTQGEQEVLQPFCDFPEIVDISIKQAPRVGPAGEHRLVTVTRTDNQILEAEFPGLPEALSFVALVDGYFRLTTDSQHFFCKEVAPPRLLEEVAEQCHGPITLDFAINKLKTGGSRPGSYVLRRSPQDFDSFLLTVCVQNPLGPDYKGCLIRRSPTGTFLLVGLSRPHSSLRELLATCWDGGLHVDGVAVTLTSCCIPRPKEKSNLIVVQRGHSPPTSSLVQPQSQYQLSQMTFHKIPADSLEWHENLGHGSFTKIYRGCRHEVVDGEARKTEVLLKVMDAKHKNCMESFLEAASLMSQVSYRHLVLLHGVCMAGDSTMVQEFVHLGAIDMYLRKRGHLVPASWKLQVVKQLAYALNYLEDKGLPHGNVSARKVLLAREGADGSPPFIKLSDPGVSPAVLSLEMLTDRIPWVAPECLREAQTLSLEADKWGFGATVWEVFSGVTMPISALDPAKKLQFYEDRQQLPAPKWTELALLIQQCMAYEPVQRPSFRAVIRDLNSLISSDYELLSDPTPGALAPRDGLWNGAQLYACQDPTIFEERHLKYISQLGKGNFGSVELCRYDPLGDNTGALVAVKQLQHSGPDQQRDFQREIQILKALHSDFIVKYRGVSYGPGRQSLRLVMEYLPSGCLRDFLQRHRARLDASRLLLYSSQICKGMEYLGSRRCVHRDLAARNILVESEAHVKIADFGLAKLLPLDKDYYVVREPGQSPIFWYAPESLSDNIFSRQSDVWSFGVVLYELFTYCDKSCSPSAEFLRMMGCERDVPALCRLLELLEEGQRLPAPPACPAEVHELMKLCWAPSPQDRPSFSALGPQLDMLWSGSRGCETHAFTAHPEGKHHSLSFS
Method: as §1

[4] = target: T3, TYK2 (Homo sapiens, UniProt P29597); assay: Competition binding assay, TYK2
T3 construct: made in house; host or cells: T7 phage display or HEK-293 cells (alternatives)
Method: as §1

[5] = system: distinct kinases tested excluding mutant variants, typically 359 or 386 kinases; assay: Kinase panel competition binding, selectivity score; conditions: compound at 10 μM; fraction of kinases with inhibition of 90% or greater
Method: as §1

T3 sequence (P29597 whole entry): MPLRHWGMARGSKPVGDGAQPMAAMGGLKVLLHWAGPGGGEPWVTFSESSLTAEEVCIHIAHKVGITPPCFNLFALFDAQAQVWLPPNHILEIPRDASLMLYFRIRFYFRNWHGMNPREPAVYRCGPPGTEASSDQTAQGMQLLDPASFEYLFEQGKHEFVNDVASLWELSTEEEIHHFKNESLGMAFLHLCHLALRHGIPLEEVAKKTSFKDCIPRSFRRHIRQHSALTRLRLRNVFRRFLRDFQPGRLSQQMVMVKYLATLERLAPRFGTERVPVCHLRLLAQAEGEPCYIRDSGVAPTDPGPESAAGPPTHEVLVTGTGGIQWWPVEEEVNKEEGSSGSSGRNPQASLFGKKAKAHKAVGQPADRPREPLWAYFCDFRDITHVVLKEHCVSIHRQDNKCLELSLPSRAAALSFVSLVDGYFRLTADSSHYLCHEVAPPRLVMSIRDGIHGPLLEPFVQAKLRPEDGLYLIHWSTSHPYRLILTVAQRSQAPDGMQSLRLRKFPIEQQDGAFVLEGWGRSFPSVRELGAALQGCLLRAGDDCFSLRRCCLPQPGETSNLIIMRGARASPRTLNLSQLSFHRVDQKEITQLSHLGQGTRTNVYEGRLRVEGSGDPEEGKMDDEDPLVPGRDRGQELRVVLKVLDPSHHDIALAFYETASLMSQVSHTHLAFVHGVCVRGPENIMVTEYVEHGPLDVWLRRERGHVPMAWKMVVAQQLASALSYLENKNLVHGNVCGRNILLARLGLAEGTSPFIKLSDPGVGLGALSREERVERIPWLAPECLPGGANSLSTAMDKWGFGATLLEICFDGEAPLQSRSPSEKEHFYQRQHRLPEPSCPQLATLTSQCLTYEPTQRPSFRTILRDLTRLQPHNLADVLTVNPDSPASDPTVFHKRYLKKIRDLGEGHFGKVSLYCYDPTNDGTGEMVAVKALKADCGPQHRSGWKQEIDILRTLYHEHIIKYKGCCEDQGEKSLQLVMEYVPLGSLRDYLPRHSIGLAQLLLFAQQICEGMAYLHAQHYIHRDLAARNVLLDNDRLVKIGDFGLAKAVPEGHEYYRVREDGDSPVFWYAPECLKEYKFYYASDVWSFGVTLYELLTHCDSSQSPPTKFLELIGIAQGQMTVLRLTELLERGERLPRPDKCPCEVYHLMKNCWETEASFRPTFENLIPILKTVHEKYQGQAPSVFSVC
T1 sequence (O60674 whole entry): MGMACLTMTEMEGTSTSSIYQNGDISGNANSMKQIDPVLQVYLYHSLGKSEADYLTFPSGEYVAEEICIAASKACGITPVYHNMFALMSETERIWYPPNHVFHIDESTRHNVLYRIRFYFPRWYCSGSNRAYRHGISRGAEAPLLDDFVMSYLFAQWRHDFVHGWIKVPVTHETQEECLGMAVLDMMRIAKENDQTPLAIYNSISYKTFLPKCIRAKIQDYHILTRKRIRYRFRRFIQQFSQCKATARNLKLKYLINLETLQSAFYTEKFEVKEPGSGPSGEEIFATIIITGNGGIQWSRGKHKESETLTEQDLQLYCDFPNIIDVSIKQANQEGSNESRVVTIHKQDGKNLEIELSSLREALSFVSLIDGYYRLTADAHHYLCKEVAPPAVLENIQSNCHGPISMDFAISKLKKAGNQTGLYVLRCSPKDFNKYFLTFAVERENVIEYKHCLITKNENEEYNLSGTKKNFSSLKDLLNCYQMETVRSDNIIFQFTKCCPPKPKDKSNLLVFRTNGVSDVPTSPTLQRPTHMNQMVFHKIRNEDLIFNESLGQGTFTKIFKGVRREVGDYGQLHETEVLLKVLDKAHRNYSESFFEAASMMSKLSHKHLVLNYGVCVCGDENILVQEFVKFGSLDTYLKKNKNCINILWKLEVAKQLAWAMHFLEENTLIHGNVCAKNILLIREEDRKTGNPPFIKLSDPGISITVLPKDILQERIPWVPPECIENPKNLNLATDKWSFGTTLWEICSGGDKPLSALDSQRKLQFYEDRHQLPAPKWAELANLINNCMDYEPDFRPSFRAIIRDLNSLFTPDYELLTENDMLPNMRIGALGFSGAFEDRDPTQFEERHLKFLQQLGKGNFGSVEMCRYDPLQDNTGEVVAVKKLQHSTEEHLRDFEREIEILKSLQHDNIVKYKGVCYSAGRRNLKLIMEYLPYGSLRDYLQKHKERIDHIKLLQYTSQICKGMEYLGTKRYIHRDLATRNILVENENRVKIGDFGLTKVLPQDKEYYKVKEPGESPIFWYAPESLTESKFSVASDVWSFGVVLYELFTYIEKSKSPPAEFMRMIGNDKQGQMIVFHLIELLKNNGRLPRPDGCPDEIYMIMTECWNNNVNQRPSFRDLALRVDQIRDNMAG

Row | Structure (SMILES) | pIC50 [1] | pKd [2] | pKd [3] | pKd [4] | S-Score: S(10) at 10 μM [5]
1 | Cc1cc(Nc2nc(C(F)(F)c3ccc(F)cc3)nc3cc(-c4c(C)noc4C)ccc23)n[nH]1 [Example 6, 2-(difluoro(4-fluorophenyl)methyl)-7-(3,5-dimethylisoxazol-4-yl)-N-(5-methyl-1H-pyrazol-3-yl)quinazolin-4-amine] | 6.30 to 7.00 | 8.00 to 9.00 | ≥ 8.00 | ≥ 8.00 | B (0.3≦B≦0.4)
2 | Cc1cc(Nc2nc(C(F)(F)c3ccc(F)cc3)nc3cc(-c4cncnc4)ccc23)n[nH]1 [Example 2, 2-(difluoro(4-fluorophenyl)methyl)-N-(5-methyl-1H-pyrazol-3-yl)-7-(pyrimidin-5-yl)quinazolin-4-amine] | ≥ 7.00 | ≥ 9.00 | ≥ 8.00 | ≥ 8.00 | A (A≦0.3)
3 | Cc1cc(Nc2nc(C(F)(F)c3ccc(F)cc3)nc3cc(N4C[C@H](O)CC4=O)ccc23)n[nH]1 [Example 7, (R)-1-(2-(difluoro(4-fluorophenyl)methyl)-4-(5-methyl-1H-pyrazol-3-ylamino)quinazolin-7-yl)-4-hydroxypyrrolidin-2-one] | 6.30 to 7.00 | ≥ 9.00 | ≥ 8.00 | ≥ 8.00 | D (D>0.5)
4 | Cc1cc(Nc2nc(C(F)(F)c3ccc(F)cc3)nc3cc(CN4CCOCC4)ccc23)n[nH]1 [Example 8, 2-(difluoro(4-fluorophenyl)methyl)-N-(5-methyl-1H-pyrazol-3-yl)-7-(morpholinomethyl)quinazolin-4-amine] | ≥ 7.00 | ≥ 9.00 | ≥ 8.00 | ≥ 8.00 | D (D>0.5)
5 | Cc1cc(Nc2nc(C(F)(F)c3ccc(F)cc3)nc3cc(-c4cnn(C)c4)ccc23)n[nH]1 [Example 1, 2-(difluoro(4-fluorophenyl)methyl)-N-(5-methyl-1H-pyrazol-3-yl)-7-(1-methyl-1H-pyrazol-4-yl)quinazolin-4-amine] | ≥ 7.00 | ≥ 9.00 | ≥ 8.00 | ≥ 8.00 | A (A≦0.3)
6 | Cc1cc(Nc2nc(C(F)(F)c3ccc(F)cc3)nc3cc(-c4ccccc4O)ccc23)n[nH]1 [Example 5, 2-(2-(difluoro(4-fluorophenyl)methyl)-4-(5-methyl-1H-pyrazol-3-ylamino)quinazolin-7-yl)phenol] | 6.30 to 7.00 | 8.00 to 9.00 | 7.00 to 8.00 | 7.00 to 8.00 | A (A≦0.3)
7 | Cc1cc(Nc2nc(C(F)(F)c3ccc(F)cc3)nc3cc(C4=CCOCC4)ccc23)n[nH]1 [Example 4, 2-(difluoro(4-fluorophenyl)methyl)-7-(3,6-dihydro-2H-pyran-4-yl)-N-(5-methyl-1H-pyrazol-3-yl)quinazolin-4-amine] | 6.30 to 7.00 | 8.00 to 9.00 | ≥ 8.00 | ≥ 8.00 | A (A≦0.3)
8 | Cc1cc(Nc2nc(C(F)(F)c3ccc(F)cc3)nc3cc(C4(O)COC4)ccc23)n[nH]1 [Example 3, 3-(2-(difluoro(4-fluorophenyl)methyl)-4-(5-methyl-1H-pyrazol-3-ylamino)quinazolin-7-yl)oxetan-3-ol] | ≥ 7.00 | ≥ 9.00 | ≥ 8.00 | ≥ 8.00 | D (D>0.5)
